Source: ChEMBL document CHEMBL4342441, “Small molecules targeting HIF-1α pathway for cancer therapy in recent years” (Bioorg Med Chem, 2020)

Assays:
[1] = biological target: T1, Hypoxia-inducible factor 1-alpha (Homo sapiens, UniProt Q16665); test: Activation of HIF1 in human T47D cells; type: cell-based
[2] = biological target: T1, Hypoxia-inducible factor 1-alpha; test: Activation of HIF1 in human T47D cells after 30 mins by luciferase reporter gene assay; type: cell-based

T1 sequence (Q16665 whole entry): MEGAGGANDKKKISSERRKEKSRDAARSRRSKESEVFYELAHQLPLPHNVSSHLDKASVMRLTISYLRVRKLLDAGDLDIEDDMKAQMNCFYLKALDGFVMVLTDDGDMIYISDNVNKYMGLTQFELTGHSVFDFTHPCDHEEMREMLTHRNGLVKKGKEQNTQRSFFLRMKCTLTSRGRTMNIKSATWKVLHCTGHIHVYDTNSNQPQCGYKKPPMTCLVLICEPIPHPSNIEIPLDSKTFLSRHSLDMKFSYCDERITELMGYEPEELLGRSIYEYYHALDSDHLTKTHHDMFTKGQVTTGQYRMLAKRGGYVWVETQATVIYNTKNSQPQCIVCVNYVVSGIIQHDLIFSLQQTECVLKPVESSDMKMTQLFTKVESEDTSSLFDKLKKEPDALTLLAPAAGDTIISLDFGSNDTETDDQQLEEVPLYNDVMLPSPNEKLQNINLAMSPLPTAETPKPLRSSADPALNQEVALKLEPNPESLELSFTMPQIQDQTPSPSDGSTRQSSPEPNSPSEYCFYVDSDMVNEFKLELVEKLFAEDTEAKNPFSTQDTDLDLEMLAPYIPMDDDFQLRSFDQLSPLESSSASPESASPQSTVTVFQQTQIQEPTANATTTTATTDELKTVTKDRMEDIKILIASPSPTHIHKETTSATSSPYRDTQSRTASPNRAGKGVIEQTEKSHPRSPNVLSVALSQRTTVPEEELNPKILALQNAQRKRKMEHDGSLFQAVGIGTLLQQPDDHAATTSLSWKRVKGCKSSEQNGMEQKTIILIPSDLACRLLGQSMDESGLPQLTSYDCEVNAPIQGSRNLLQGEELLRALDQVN

Row | IC50 [1] [nM] | IC50 [2] [nM] | SMILES
1 | 20 |  | COc1ccc([C@@H](O)[C@@H](C)Oc2ccc([C@H]3O[C@H](c4ccc(OC)c(OC)c4)[C@H](C)[C@H]3C)cc2OC)cc1OC
2 |  | 3 | COc1ccc([C@@H](O)[C@@H](C)Oc2ccc([C@@H]3CC[C@H](c4ccc(O[C@H](C)[C@H](O)c5ccc(OC)c(OC)c5)c(OC)c4)C3)cc2OC)cc1OC
